The values below are quoted from earlier work in article PMC8637765 (RSC Chemical Biology, 2021).

For this data set, the system named is cancer cells.

For `O=C(Cc1ccccc1)Nc1nnc(CCSCCc2nnc(NC(=O)Cc3ccccc3)s2)s1` [BPTES, bis-2-(5-phenylacetamido-1,3,4-thiadiazol-2-yl)ethyl sulfide], the “Growth inhibition at the cellular level” value is recorded as “partial growth inhibition”.
`O=C(Cc1cccc(OC(F)(F)F)c1)Nc1ccc(CCCCc2nnc(NC(=O)Cc3ccccn3)s2)nn1` [CB-839]: the “Growth inhibition at the cellular level” value is listed as “partial growth inhibition”.
